Data: patent US11571418B2, “Platinum compounds that inhibit constitutive STAT3 signaling and induce cell cycle arrest and apoptosis of malignant cells” (H. LEE MOFFITT CANCER CENTER AND RESEARCH INSTITUTE, INC., priority 2011, dated 2023)

Experiments:
Test in all cases: TUNEL analysis of apoptosis
Type in all cases: cell-based, human
MDA-MB-435 = details: 48 h
Source text: (§1) FIGS. 7A-7C. TUNEL analysis of PLATINUM-401-mediated apoptosis. (FIG. 7A) Normal NIH3T3 fibroblasts and their v-Src-transformed counterparts (NIH3T3/v-Src), human breast carcinoma cell lines (MDA-MB-453, MDA-MB-435, MDA-MB-468, and MDA-MB-231), human non-small cell lung cancer cell line (A549), human prostate cancer cell line (DU145), multiple myeloma 5TGM1 (mouse) and U266 (human) cell lines, mouse melanoma cell line (B16) and human pancreatic cancer cell line (Panc1) were all treated with or without PLATINUM-401 for 48 h and analyzed by TUNEL for DNA damage. For each cell line, the activated Stat3 status is indicated as (−), no constitutively-active Stat3 and (+), constitutively-active Stat3 (see FIG. 5A). Data are representative of 3 independent determinations; (FIG. 7B) Human breast cancer cell lines (MDA-MB-453, MDA-MB-468 and MDA-MB-435) were transfected with or without Stat3β or Stat3 antisense (Stat3AS), or were treated with or without Stat3 peptidomimetic inhibitor, ISS 610 (1 mM) or PLATINUM-401 (5 μM)). Forty-eight hours afterwards, cells were harvested and processed for TUNEL analysis; (FIG. 7C) The viral Src-transformed NIH3T3/v-Src fibroblasts were transfected with or without wild-type Stat3 (pRc/CMV Stat3 Flag) and treated with or without 5 μM PLATINUM-401 for 36 h. Cells were subsequently harvested for nuclear extracts preparation and Stat3 DNA-binding assay in vitro with EMSA analysis (left panel), or were processed for TUNEL analysis (right panel).
(§2) Cell proliferation and TUNEL assays—Proliferating cells were first treated with or without PLATINUM-401 for up to 48 h. A portion of cells were harvested for BrdU incorporation following the manufacturer's (BD Biosciences Pharmingen, San Diego, Calif.) instructions and analyzed by flow cytometry. Harvested cells were also analyzed for apoptosis via detection of TdT-mediated dUTP nick-end labeling (TUNEL) assay using Apoptosis Detection Systems Fluorescein according to the manufacturer's (Roche, Indianapolis, Ind.) instructions. Oligonucleotides and plasmids Transfections. The Stat3 antisense (5′-[…]-3′) (SEQ ID NO:3) or control mismatch oligonucleotides (5′-[…]-3′) (SEQ ID NO:4) were synthesized using phosphorothioate chemistry and were synthesized with 2′-Omethoxyethyl modification of the five terminal nucleotides (underlined; (Mora et al., 2002; Karras et al., 2000)) to increase stability. Transfections of Stat3AS and plasmids were carried out with Lipofectamine 2000 (LF) according to the manufacturer's instructions (Invitrogen, Carlsbad, Calif.). Briefly, cells were seeded at 1-2×10^6 cells/10-cm tissue-culture plates 18 h before transfection. Immediately before transfection, cells were washed once with PBS. Cells were transfected with luciferase reporters (4 μg) in the presence or absence of v-Src (4 μg), or were transfected with Stat3β (4 μg) or pRC/CMV Stat3 Flag (4 μg). Stat3AS transfections were carried out LF alone, or with LF/Stat3 antisense oligonucleotides, or LF/Stat3 mismatch oligonucleotides (final concentration of the oligonucleotides was 250 nM). After 2-3 h, the transfection medium was aspirated and cells washed with PBS before fresh medium added containing 10% FBS was added.
(§3) Cells were analyzed for DNA-strand breaks by TUNEL staining. […] The incidence of apoptosis correlated with the prevalence of constitutively-active Stat3 in malignant cells (FIG. 7, lower panel). Moreover, the incidence of apoptosis by PLATINUM-401 in breast cancer cell lines (MDA-MB-468 and MDA-MB-435) harboring constitutively-active Stat3 compares favorably to that induced by other previously investigated Stat3 inhibitory approaches, such as Stat3β (Garcia et al., 2001), Stat3 antisense (Stat3AS) (Mora et al., 2002), peptidomimetic inhibitor of Stat3 (ISS 610) (FIG. 7B) (Turkson et al., 2004c), and contrasts with the absence of apoptosis in breast cancer cell line, MDA-MB-453 that lacks constitutively-active Stat3. […]

MDA-MD-231 = details: 48 h
Source text: as §1, §2, §3

U266 = details: 48 h
Source text: as §1, §2, §3

DU145 = details: 48 h
Source text: as §1, §2, §3

MDA-MB-468 = details: 48 h
Source text: as §1, §2, §3

A549 = details: 48 h
Source text: as §1, §2, §3

MDA-MB-453 = details: 48 h, no aberrant Stat3 activity
Source text: as §1, §2, §3

Panc1 = details: 48 h
Source text: as §1, §2, §3

For `CC(O)CN1CCN(CC(C)O)CC1` (centres unmarked) [PLATINUM-401], the TUNEL staining (MDA-MB-435) was “Significant TUNEL staining”, the TUNEL staining (MDA-MD-231) was “Significant TUNEL staining” and the TUNEL staining (U266) was “Significant TUNEL staining”. For the same compound, the TUNEL staining (DU145) was “Significant TUNEL staining”, the TUNEL staining (MDA-MB-468) was “Significant TUNEL staining” and the TUNEL staining (A549) was “Significant TUNEL staining”. For the same compound, the TUNEL staining (MDA-MB-453) was “no TUNEL staining” and the TUNEL staining (Panc1) was “Significant TUNEL staining”.
